{"source": "paper PMC5974720", "about": "“Urate transport function of rat sodium‐dependent nucleobase transporter 1” (Physiological Reports, 2018)", "molecules": {"B1": {"name": "rat sodium-dependent nucleobase transporter 1 (rSNBT1) (Rattus norvegicus) (protein)", "chain": "MNSAVCSLESPNSRRGDGALSSHTEDQGKTKDRQQKDFSSSHLAYGILDRPPWYLCIFLGIQHFLTALGGLVAVPLILAKDLCLQHDPLTQSYLISTIFFVSGICTLLQVLLGVRLPILQGGTFAFVAPSLAMLSLPAWKCPEWTLNASLVNTSSPEFTEEWQKRIRELQGAVMVASCIQMLVGFSGLIGYLMRFIGPLTIAPTISLVALPLFDSASNDAGTHWGISALTIFLIVLFSQYLKNVMVPVPVYGGGKRCHISKFNLFQVFPVLLALCLSWLFCFVLTVTNTFPESPTAYGYMARTDTKGSVLSQAPWFRFPYPGQWGLPTISLAGVFGIIAGVISSMVESVGDYHACARLVGAPPPPKHAINRGIGIEGLGCLLAGAWGTGNGTTSYSENVGALGITRVGSRMVIVAAGCVLLLMGMFGKIGAAFATIPTPVIGGMFLVMFGIISAVGISNLQYVDMNSSRNLFVFGFSIFCGLAVPNWVNKNPEKLQTGILQLDQVIQVLLTTGMFVGGFLGFVLDNTIPGSLEERGLLAWGEIQEDSEETPKASKVYGLPWGIGTKFCTSSCTRILPFWPRIDHHGDEVGASQLTLCSQTSSGKHPWSVTETKM"}}, "key": {"[1]": {"molecular_target": "T1, rat sodium-dependent nucleobase transporter 1 (rSNBT1) (Rattus norvegicus, UniProt D2KX48)", "T1 construct": "gene Slc23a4", "T1 sequence (D2KX48 1-614)": "B1 chain", "experiment": "inhibition of rSNBT1-specific […]urate uptake in stably transfected MDCKII cells; [3H]uracil uptake in transfected HEK293 cells", "type": "cell-based"}, "[2]": {"molecular_target": "T1, rat sodium-dependent nucleobase transporter 1 (rSNBT1)", "experiment": "inhibition of rSNBT1-specific […]urate uptake in stably transfected MDCKII cells", "type": "cell-based"}, "[3]": {"molecular_target": "T2, rat breast cancer resistance protein (rBCRP) (Rattus norvegicus, UniProt Q80W57)", "T2 construct": "gene Abcg2", "T2 sequence (Q80W57 1-657)": "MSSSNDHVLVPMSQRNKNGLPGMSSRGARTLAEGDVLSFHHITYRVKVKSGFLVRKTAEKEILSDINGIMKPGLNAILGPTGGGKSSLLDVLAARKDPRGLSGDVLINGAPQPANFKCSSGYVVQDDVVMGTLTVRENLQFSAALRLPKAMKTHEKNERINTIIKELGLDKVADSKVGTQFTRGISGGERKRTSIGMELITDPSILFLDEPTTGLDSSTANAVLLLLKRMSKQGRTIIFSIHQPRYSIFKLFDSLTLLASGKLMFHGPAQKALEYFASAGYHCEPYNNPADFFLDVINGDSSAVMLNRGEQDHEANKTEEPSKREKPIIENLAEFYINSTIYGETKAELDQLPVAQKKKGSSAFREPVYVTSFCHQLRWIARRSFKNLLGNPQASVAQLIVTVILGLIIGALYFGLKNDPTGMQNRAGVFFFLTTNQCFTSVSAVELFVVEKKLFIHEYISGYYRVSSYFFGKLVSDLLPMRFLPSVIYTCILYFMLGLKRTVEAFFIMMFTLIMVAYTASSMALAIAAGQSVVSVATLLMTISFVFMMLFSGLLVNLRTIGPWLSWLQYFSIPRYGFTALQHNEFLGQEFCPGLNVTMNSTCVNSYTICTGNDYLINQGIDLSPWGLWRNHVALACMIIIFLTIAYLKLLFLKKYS", "experiment": "inhibition of rBCRP-mediated urate efflux in HEK293 cells co-expressing rSNBT1 ([…])", "type": "cell-based"}, "[4]": {"molecular_target": "T3, human OAT3 (Homo sapiens, UniProt Q8TCC7)", "T3 construct": "gene SLC22A8", "T3 sequence (Q8TCC7 1-542)": "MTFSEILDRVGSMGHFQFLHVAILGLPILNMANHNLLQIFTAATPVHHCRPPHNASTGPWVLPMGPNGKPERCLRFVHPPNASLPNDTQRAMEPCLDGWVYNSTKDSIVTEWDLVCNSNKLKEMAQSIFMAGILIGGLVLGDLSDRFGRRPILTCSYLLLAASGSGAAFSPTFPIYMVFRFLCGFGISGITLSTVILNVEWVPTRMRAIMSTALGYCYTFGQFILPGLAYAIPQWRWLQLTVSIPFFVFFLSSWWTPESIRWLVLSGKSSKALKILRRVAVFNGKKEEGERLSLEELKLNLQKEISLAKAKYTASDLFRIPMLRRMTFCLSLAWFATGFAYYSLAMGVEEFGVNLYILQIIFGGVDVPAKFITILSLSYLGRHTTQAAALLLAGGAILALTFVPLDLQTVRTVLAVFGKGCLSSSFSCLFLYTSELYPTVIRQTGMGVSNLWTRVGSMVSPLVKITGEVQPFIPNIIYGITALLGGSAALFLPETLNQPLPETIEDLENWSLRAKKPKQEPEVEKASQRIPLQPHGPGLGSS", "experiment": "[…]urate uptake in transiently transfected HEK293 cells"}, "[5]": {"molecular_target": "T4, human URAT1 (urate transporter 1) (Homo sapiens, UniProt Q96S37)", "T4 construct": "gene SLC22A12", "T4 sequence (Q96S37 1-553)": "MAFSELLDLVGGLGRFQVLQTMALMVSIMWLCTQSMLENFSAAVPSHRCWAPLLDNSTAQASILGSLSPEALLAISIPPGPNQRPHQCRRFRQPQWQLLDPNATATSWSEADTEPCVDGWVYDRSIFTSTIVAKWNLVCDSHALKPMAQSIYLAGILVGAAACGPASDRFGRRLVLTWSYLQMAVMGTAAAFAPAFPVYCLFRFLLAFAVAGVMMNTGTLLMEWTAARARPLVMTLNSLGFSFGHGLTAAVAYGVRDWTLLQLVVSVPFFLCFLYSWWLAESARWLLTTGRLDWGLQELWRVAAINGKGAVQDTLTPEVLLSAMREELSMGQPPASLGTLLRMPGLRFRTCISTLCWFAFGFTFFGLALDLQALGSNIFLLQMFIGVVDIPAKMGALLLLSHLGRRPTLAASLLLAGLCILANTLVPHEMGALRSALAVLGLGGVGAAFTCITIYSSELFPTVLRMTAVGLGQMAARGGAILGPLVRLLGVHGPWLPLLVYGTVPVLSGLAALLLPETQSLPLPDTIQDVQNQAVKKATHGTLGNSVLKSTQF"}, "[6]": {"molecular_target": "T5, human organic anion transporter 1 (OAT1) (Homo sapiens, UniProt Q4U2R8)", "T5 construct": "gene SLC22A6", "T5 sequence (Q4U2R8 1-563)": "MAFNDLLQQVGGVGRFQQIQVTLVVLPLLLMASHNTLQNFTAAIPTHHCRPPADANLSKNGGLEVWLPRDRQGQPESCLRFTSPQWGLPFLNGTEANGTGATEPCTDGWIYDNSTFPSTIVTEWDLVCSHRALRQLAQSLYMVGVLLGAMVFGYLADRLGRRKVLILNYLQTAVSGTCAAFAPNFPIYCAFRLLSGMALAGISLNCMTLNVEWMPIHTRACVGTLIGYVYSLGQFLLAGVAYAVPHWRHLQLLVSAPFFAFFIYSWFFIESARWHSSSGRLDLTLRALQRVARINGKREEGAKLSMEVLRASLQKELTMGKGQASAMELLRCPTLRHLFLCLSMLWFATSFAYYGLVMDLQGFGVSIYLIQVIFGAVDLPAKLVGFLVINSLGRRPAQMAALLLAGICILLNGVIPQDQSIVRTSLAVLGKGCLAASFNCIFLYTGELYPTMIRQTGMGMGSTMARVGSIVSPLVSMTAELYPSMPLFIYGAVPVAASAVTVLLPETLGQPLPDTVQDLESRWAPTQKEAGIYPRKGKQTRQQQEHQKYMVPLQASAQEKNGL", "experiment": "[…]urate uptake in transiently transfected HEK293 cells", "type": "cell-based"}, "[7]": {"substrate": "O=c1[nH]c(=O)c2[nH]c(=O)[nH]c2[nH]1", "experiment": "cells, lysate or membranes", "type": "cell-based, Rattus norvegicus", "details": "Na+ likely to share the same substrate recognition site with uracil"}}, "data": [{"molecule": "O=c1cc[nH]c(=O)[nH]1", "note": "[Uracil]", "values": [{"measurement": "IC50", "setting": "[1]", "result": "28.4 ± 8.5", "unit": "µM"}]}, {"molecule": "Cc1c[nH]c(=O)[nH]c1=O", "note": "[Thymine]", "values": [{"measurement": "IC50", "setting": "[2]; read-out: IC50", "result": "8.8 ± 2.5", "unit": "µM"}]}, {"molecule": "O=c1[nH]cnc2nc[nH]c12", "note": "[Hypoxanthine]", "values": [{"measurement": "IC50", "setting": "[2]; read-out: IC50", "result": "10.1 ± 2.4", "unit": "µM"}]}, {"molecule": "Nc1nc2nc[nH]c2c(=O)[nH]1", "note": "[Guanine]", "values": [{"measurement": "IC50", "setting": "[2]", "result": "2.7 ± 0.8", "unit": "µM"}]}, {"molecule": "COc1ccc2c3c([nH]c2c1)[C@H](CC(C)C)N1C(=O)[C@H](CCC(=O)OC(C)(C)C)NC(=O)[C@@H]1C3", "note": "[Ko143]", "values": [{"measurement": "inhibition of rBCRP-mediated urate efflux in HEK293 cells co-expressing rSNBT1", "setting": "[3]", "result": "Ko143 was effective in inhibiting rBCRP‐mediated urate efflux almost completely at that concentration"}]}, {"molecule": "O=c1[nH]c(=O)c2[nH]c(=O)[nH]c2[nH]1", "note": "[urate]", "values": [{"measurement": "[14C]urate uptake in transiently transfected HEK293 cells", "setting": "[4]", "result": "When transiently introduced into HEK293 cells, all those transporters raised urate uptake, but to lesser extents than rSNBT1."}, {"measurement": "[14C]urate uptake in transiently transfected HEK293 cells", "setting": "[5]", "result": "When transiently introduced into HEK293 cells, all those transporters raised urate uptake, but to lesser extents than rSNBT1."}, {"measurement": "[14C]urate uptake in transiently transfected HEK293 cells", "setting": "[6]", "result": "When transiently introduced into HEK293 cells, all those transporters raised urate uptake, but to lesser extents than rSNBT1."}]}, {"molecule": "B1", "values": [{"measurement": "Km", "setting": "[7]", "result": "433 ± 113", "unit": "µM"}]}]}
